How the values were obtained:
[1] = Permeability from apical to basolateral side in human Caco2 cells; type: ADME, cell-based; conditions: Caco-2, read-out: permeability
[2] = Permeability from basolateral to apical side in human Caco2 cells; type: ADME, cell-based; conditions: Caco-2, read-out: permeability
[3] = Metabolic stability in rat hepatocytes assessed as compound remaining after 2 hrs; type: ADME, cell-based, Hepatocyte; conditions: read-out: Stability
[4] = AUClast in Lewis rat at 10 mg/kg, po; type: ADME, organism-based; set-up: time 0 - last, dose 10 mg/kg, route oral; conditions: plasma
[5] = Volume of distribution at steady state in Lewis rat at 3 mg/kg, iv; type: ADME, organism-based; set-up: dose 3 mg/kg, route intravenous; conditions: in vivo, read-out: Vdss
[6] = Metabolic stability in dog hepatocytes assessed as compound remaining after 2 hrs; type: ADME, cell-based, Canis lupus familiaris, Hepatocyte; conditions: read-out: Stability
[7] = AUClast in Lewis rat at 3 mg/kg, iv; type: ADME, organism-based; set-up: time 0 - last, dose 3 mg/kg, route intravenous; conditions: plasma
[8] = Cmax in Lewis rat at 3 mg/kg, iv; type: ADME, organism-based; set-up: dose 3 mg/kg, route intravenous; conditions: in vivo
[9] = Metabolic stability in human hepatocytes assessed as compound remaining after 2 hrs; type: ADME, cell-based, Hepatocyte; conditions: read-out: Stability
[10] = Cmax in Lewis rat at 10 mg/kg, po; type: ADME, organism-based; set-up: dose 10 mg/kg, route oral; conditions: in vivo
[11] = Tmax in Lewis rat at 10 mg/kg, po; type: ADME, organism-based; set-up: dose 10 mg/kg, route oral; conditions: in vivo
[12] = Clearance in Lewis rat at 3 mg/kg, iv; type: ADME, organism-based; set-up: dose 3 mg/kg, route intravenous; conditions: in vivo
[13] = Oral bioavailability in Lewis rat at 10 mg/kg; type: ADME, organism-based; conditions: in vivo
[14] = Half life in Lewis rat at 3 mg/kg, iv; type: ADME, organism-based; set-up: dose 3 mg/kg, route intravenous; conditions: in vivo

Row | SMILES | Papp A→B [1] [×10⁻⁶ cm/s] | Papp B→A [2] [×10⁻⁶ cm/s] | further results
1 | O=C1N(Cc2ccc(Cl)cc2)c2ccccc2C1(O)c1ccc2c(c1)OCO2 (configuration not stated) | 9 | 10.9 | 
2 | O=C1N(Cc2ccc(Cl)cc2)c2ccccc2C1(O)c1ccc2c(c1)OCCO2 (configuration not stated) | 1.9 | 3.5 | 
3 | O=C1N(Cc2ccc(Cl)cc2)c2ccccc2C1(O)c1ccccc1 (configuration not stated) | 13.1 | 12.5 | 
4 | O=C1N(CCC2CC2)c2ccccc2C1(O)c1ccc2c(c1)OCO2 (configuration not stated) | 19.9 | 19.8 | 
5 | CCCCCN1C(=O)C(O)(c2ccc3c(c2)OCO3)c2ccccc21 (configuration not stated) | 28.9 | 25.4 | 
6 | CCC(C)CCN1C(=O)C(O)(c2ccc3c(c2)OCO3)c2ccccc21 (configuration not stated) | 10.5 | 11.5 | 
7 | COc1ccc(CN2C(=O)C(O)(c3ccc4c(c3)OCO4)c3ccccc32)cc1 (configuration not stated) | 6.5 | 11.9 | 
8 | O=C1N(Cc2ccccc2)c2ccccc2C1(O)c1ccc2c(c1)OCO2 (configuration not stated) | 9.3 | 13.6 | 
9 | O=C1N(Cc2ccc3c(c2)OCO3)c2ccccc2C1(O)c1ccc2c(c1)OCO2 (configuration not stated) | 7.7 | 12.1 | 
10 | O=C1N(CC2CCC2)c2ccccc2C1(O)c1ccc2c(c1)OCO2 (configuration not stated) | 21.7 | 21.1 | 
11 | O=C1N(Cc2ccc(C(F)(F)F)cc2)c2ccccc2C1(O)c1ccc2c(c1)OCO2 (configuration not stated) | 5.4 | 7.9 | 
12 | CCCCCN1C(=O)C(C)(c2ccc3c(c2)OCO3)c2ccccc21 (configuration not stated) | 2.4 | 3.6 | 
13 | CCCCCN1C(=O)C(N)(c2ccc3c(c2)OCO3)c2ccccc21 (configuration not stated) | 22 | 22.3 | 
14 | CCCCCN1C(=O)C2(COc3cc4c(cc32)OCO4)c2ccccc21 (configuration not stated) | 5.9 | 7.2 | remaining at 2 h [3]: 21%; AUC(0-t) [4]: 143 ng·h/mL; Vd [5]: 35 L/kg; remaining at 2 h [6]: 46%; AUC(0-t) [7]: 320 ng·h/mL; Cmax [8]: 953 ng/mL; remaining at 2 h [9]: 34%; Cmax [10]: 35 ng/mL; Tmax [11]: 19.8 min; clearance [12]: 157 mL/min/kg; bioavailability [13]: 13%; half-life [14]: 156 min
15 | CCCCCN1C(=O)C2(CCc3cc4c(cc32)OCO4)c2ccccc21 (configuration not stated) | 1.1 | 1.6 | 

Source: ChEMBL document CHEMBL1777780, “Discovery of XEN907, a spirooxindole blocker of NaV1.7 for the treatment of pain” (Bioorg Med Chem Lett, 2011)
